{"source": "patent US20200138744A1", "about": "“METHODS OF TREATING PANCREATIC CANCER USING COENZYME Q10” (Berg LLC, priority 2018, published 2020)", "key": {"[1]": {"settings": "Phase I clinical trial; monotherapy and in combination with gemcitabine; IV", "description": "(§1) The composition comprising Coenzyme Q10 evaluated in this study is a ubidecarenone containing intravenous (IV) nanodispersion that switches cancer energy generation from glycolysis to mitochondrial oxidative phosphorylation to elicit an anticancer effect."}, "[2]": {"experiment": "Phase 2 clinical study, adverse events / toxicity profile", "settings": "for Patients with an AE: safety population (31 patients), % of all 31", "protocol": "Eligible patients (aged ≥18 y) were relapsed/refractory to standard treatment and met inclusion/exclusion criteria. […] Each received either two 72-hr infusions of 110 mg/kg IV Coenzyme Q10 alone (Monotherapy) or in combination with gemcitabine (Combination Therapy), per week. Tumor response was evaluated at week 10 and then every 8 weeks. Clinical assessments included investigator observations and patient reports.\n(§2) A Coenzyme Q10 Nanosuspension Injection (40 mg/mL) was administered IV over 144 hours. Each patient received 2 consecutive 72-hour infusions per week. Monotherapy arm patients received a Coenzyme Q10 dose of 110 mg/Kg only weekly. Patients in the combination therapy arm received a Coenzyme Q10 dose of 110 mg/Kg and gemcitabine IV once weekly (starting at week 3) at a starting dose of 1000 mg/m^2."}, "[3]": {"system": "metastatic pancreatic cancer", "experiment": "Phase 2 clinical study, efficacy (RECIST 1.1, TTP, PFS, OS)", "protocol": "Eligible patients (aged ≥18 y) were relapsed/refractory to standard treatment and met inclusion/exclusion criteria. […] Each received either two 72-hr infusions of 110 mg/kg IV Coenzyme Q10 alone (Monotherapy) or in combination with gemcitabine (Combination Therapy), per week. Tumor response was evaluated at week 10 and then every 8 weeks. Clinical assessments included investigator observations and patient reports. This study occurred in two parts: Part 1 of the study enrolled ten (10) patients in the Coenzyme Q10 (monotherapy arm) and ten (10) patients in the Coenzyme Q10 plus gemcitabine (combination therapy arm) with intent to enroll the additional 15 patients (Part 2) into the applicable treatment arm(s) based on RECIST v1.1 clinical response.\nPatients with no prior gemcitabine treatments prior to screening for the study, or prior gemcitabine treatment >3 months prior to screening for the study were assigned to the combination therapy group. Patients with prior gemcitabine discontinued due to toxicity in prior treatment, patients unable to tolerate a dose of 800 mg/m^2 weekly at any point due to toxicity, and patients with prior gemcitabine treatment ≤3 months prior to screening for the study were assigned to the monotherapy group.\nas §2\nThe primary objective of the study was to evaluate the Overall Response Rate (ORR) in patients treated with the combination of Coenzyme Q10 with gemcitabine or Coenzyme Q10 as a monotherapy. The secondary objectives were to evaluate Overall Survival (OS), Progression-Free Survival (PFS) overall and at around 10 weeks (equal to 2 cycles of treatment), Time to Progression (TTP), Tumor Response using Adaptive Molecular Responses (multi-omic molecular profiling), the toxicity profile of Coenzyme Q10 with gemcitabine and as monotherapy when given over 144-hour intravenous (IV) infusion in patients with advanced pancreatic cancer, changes in carbohydrate antigen (CA) 19-9 levels, and patient reported Quality of Life (QOL) using the validated FACT-HEP PRO.\nThe study described above in Example 1 was continued and additional patients were evaluated."}, "pancreatic models": {"system": "pancreatic models", "experiment": "Preclinical in vivo pancreatic models, survival", "settings": "IV administration, alone and in combination with gemcitabine", "description": "as §1"}, "[4]": {"settings": "treatment-emergent, safety population"}, "[5]": {"settings": "Example 1, overall current population"}, "[6]": {"settings": "Example 1, preliminary, both arms"}}}
{"smiles": "COC1=C(OC)C(=O)C(C/C=C(\\C)CC/C=C(\\C)CC/C=C(\\C)CC/C=C(\\C)CC/C=C(\\C)CC/C=C(\\C)CC/C=C(\\C)CC/C=C(\\C)CC/C=C(\\C)CCC=C(C)C)=C(C)C1=O", "note": "[Coenzyme Q10]", "values": [{"measurement": "MTD", "setting": "[1]", "result": 110, "unit": "mg/kg"}, {"measurement": "patients who experienced at least 1 AE", "setting": "[2]; Example 1", "result": "All"}, {"measurement": "INR increase, frequency of AE", "setting": "[2]; Example 1, 31 treated patients", "result": 48.4, "unit": "%"}, {"measurement": "abdominal pain, frequency of AE", "setting": "[2]; Example 1, 31 treated patients", "result": 35.5, "unit": "%"}, {"measurement": "fatigue, frequency of AE", "setting": "[2]; Example 1, 31 treated patients", "result": "38/7"}, {"measurement": "thrombocytopenia, frequency of AE", "setting": "[2]; Example 1, 31 treated patients", "result": 35.5, "unit": "%"}, {"measurement": "tolerability", "setting": "[2]; Example 1, Phase 2", "result": "well-tolerated"}, {"measurement": "AEs considered definitely related to study drug", "setting": "[2]; Example 1, number of AEs", "result": 10}, {"measurement": "AEs considered possibly related to study drug", "setting": "[2]; Example 1, number of AEs", "result": 19}, {"measurement": "AEs considered probably related to study drug", "setting": "[2]; Example 1, number of AEs", "result": 14}, {"measurement": "most common AE's", "setting": "[2]; Example 2", "result": "GI related"}, {"measurement": "tolerability", "setting": "[2]; Example 2", "result": "well tolerated"}, {"measurement": "Number of AEs", "setting": "[2]; [4]", "result": 347}, {"measurement": "Subjects with any AE leading to study drug discontinuation", "setting": "[2]; [4]", "result": "4 (12.9) N (%)"}, {"measurement": "Subjects with any Infusion reactions", "setting": "[2]; [4]", "result": "0 N (%)"}, {"measurement": "Subjects with any Serious AE", "setting": "[2]; [4]", "result": "12 (38.7) N (%)"}, {"measurement": "Subjects with any ≥Grade 3 AE", "setting": "[2]; [4]", "result": "31 (100) N (%)"}, {"measurement": "Patients with an AE", "setting": "[2]; treatment-emergent, listed as Coenzyme Q10-IV", "result": "31 (100) N (%)"}, {"measurement": "Patients with an AE", "setting": "[2]; treatment-emergent, listed as Mono", "result": "13 (41.9) N (%)"}, {"measurement": "mean overall survival", "setting": "[3]; [5]", "result": 125, "unit": "days"}, {"measurement": "mean time to progression (TTP)", "setting": "[3]; [5]", "result": 68, "unit": "days"}, {"measurement": "median overall survival", "setting": "[3]; [5]", "result": 108, "unit": "days"}, {"measurement": "median time to progression (TTP)", "setting": "[3]; [5]", "result": 53, "unit": "days"}, {"measurement": "patients with SD <4 months", "setting": "[3]; [6]", "result": 4}, {"measurement": "patients with SD >4 months", "setting": "[3]; [6]", "result": 3}, {"measurement": "stable disease (SD) noted, number of patients by arm", "setting": "[3]; Example 1, preliminary, of 13 evaluable patients", "result": 1}, {"measurement": "stable disease (SD) noted, number of patients", "setting": "[3]; Example 1, preliminary, of 13 evaluable patients, both arms", "result": 7}, {"measurement": "best ORR of stable disease (SD), share of ATC population", "setting": "[3]; Example 2, adequately treated cohort, n=9/18, with gemcitabine", "result": 50, "unit": "%"}, {"measurement": "median Progression-Free Survival (PFS)", "setting": "[3]; Example 2, with gemcitabine, 95% CI 70-131, FIG. 4", "result": 118, "unit": "days"}, {"measurement": "median time to progression (TTP)", "setting": "[3]; Example 2, with gemcitabine, 95% CI 70-147, FIG. 3", "result": 121, "unit": "days"}, {"measurement": "median Overall Survival (OS)", "setting": "[3]; Example 2, with gemcitabine, 95% CI 131-228, FIG. 5", "result": 218, "unit": "days"}, {"measurement": "correlation of time of Coenzyme Q10 exposure with time to progression", "setting": "[3]; FIG. 1, monotherapy or combination therapy", "result": "positively correlated"}, {"measurement": "correlation of time of Coenzyme Q10 exposure with overall survival", "setting": "[3]; FIG. 2, monotherapy or combination therapy", "result": "positively correlated"}, {"measurement": "Discontinuation from the study: Disease Progression", "setting": "[3]; Overall to Date (N = 47)", "result": "12 (25.5) N (%)"}, {"measurement": "duration of survival outcomes", "setting": "pancreatic models", "result": "significantly improved"}]}
